Data published in paper PMC5218480 (PLoS ONE, 2017).

Tested on: MV-4-11 cells
Assay: Gene expression microarray analysis (Affymetrix PrimeView) and GSEA
Format: cell-based, human
Conditions: ProbeSet 11754607_s_at; LIST B

Nc1ccc(-c2cccs2)cc1NC(=O)c1ccc2c(c1)cc(C1CC1)n2CCN1CCOCC1 [ACY-1035]
RFU, HSP90B1 /// MIR3652: 2548.05 RFU
